Measured values taken from US4594347A, “Pyrrolo [3,2,1-ij]-quinoline carboxylic acid compound” (Otsuka Pharmaceutical Co. Limited, priority 1983, dated 1986).

Key:
[1] = tested on: Serratia marcescens IFO 12648; test: Antimicrobial test in vitro (MIC, agar plate dilution method); assay type: cell-based; set-up: unit not given here; conditions: S. marcescens IFO 12648
Protocol: (§1) The antimicrobial activities of the following test compounds were tested by measuring the minimum inhibitory concentration (MIC) by an agar plate dilution method [cf. Chemotherapy, 22, 1126-1128 (1974)]. The test microorganisms were used in a concentration of 1×10^8 cells/ml (optical dencity (O.D.) at 660 m: 0.07-0.16) and 1×10^6 cells/ml (dilution: 100 folds).
H: Serratia marcescens IFO 12648

[2] = tested on: Escherichia coli NIHJ JC-2; test: as above; assay type: cell-based; set-up: unit not given here; conditions: E. coli NIHJ JC-2
Protocol: as §1
C: Escherichia coli NIHJ JC-2

[3] = Measurement of concentration of compounds in urine; assay type: in vivo; conditions: male rats, oral 25 mg/kg, 0-24 hours
Protocol: (§2) The same Test Compound 1 as used in the above Test 1 was orally administered in a dose of 25 mg/kg to three male rats (weighing 190-242 g), and blood and urine were collected from the animals at intervals. The concentration of the test compound in the collected urine and blood was measured by a thin layer plate cup (6 ml medium/.phi.90 mm shall) method wherein Bacillus subtilis ATCC 6633 was used as a test microorganism and a sensitive medium (manufactured by Eiken Kagaku K.K., Japan) was used as a medium. The results are shown in Table 2 (the concentration in urine) and in Table 3 (the concentration in blood), respectively.

[4] = tested on: Pseudomonas aeruginosa E-2; test: Antimicrobial test in vitro (MIC, agar plate dilution method); assay type: cell-based; set-up: unit not given here; conditions: P. aeruginosa E-2
Protocol: as §1
K: Pseudomonas aeruginosa E-2

[5] = tested on: Staphylococcus aureus FDA 209P; test: as above; assay type: cell-based; set-up: unit not given here; conditions: S. aureus FDA 209P
Protocol: as §1
A: Staphylococcus aureus FDA 209P

[6] = tested on: Pseudomonas aeruginosa ATCC 10145; test: as above; assay type: cell-based; set-up: unit not given here; conditions: P. aeruginosa ATCC 10145
Protocol: as §1
J: Pseudomonas aeruginosa ATCC 10145

[7] = tested on: Pseudomonas aeruginosa E-2; test: Therapeutic effects of compounds in urinary infectious diseases in vivo; set-up: species or system JCL:S.D. female rats; conditions: E2, 96 h, female S.D. rats, bladder infection, oral at 6, 24 and 48 hours, urine and kidney colonies after 4 days, Probit method, read-out: 50% effective dose (ED50)
Protocol: Pseudomonas aeruginosa E-2 was cultured in a nutrient medium at 37° C. for 18 hours and the culture broth thus obtained was diluted with the same medium to prepare a solution of the microorganism (cell concentration: 10^7 cells/ml). To the solution were dipped a UV-sterilized disc [glyceryl monomyristate (manufactured by Nikko Chemicals, Japan) and sodium cetylsulfurate (manufactured by Nikko Chemicals, Japan) in a weight ratio of 9:1; diameter: 2.0 mm, length: 3.0 mm] under ice-cooling for 1.5 hour to give a microorganism-containing disc for inoculation.
The above-prepared disc was surgically inserted into the bladder of JCL:S.D. female rats (one group: four rats) anaesthetized with secobarbital sodium. After the animals have been infected with the microorganism, i.e. 6 hours after the insertion of the disc, 1% oxamide-containing feed and water were administered to the animals. The oxamide-containing feed was changed to a normal feed after 24 hours. Test compounds 1, 7 and 8 as used in Test 1 (in the form of a 0.5% CMC suspension) were each orally administered to the animals in a dose of 16 mg/kg, 8.0 mg/kg, 4.0 mg/kg, 2.0 mg/kg, and 1.0 mg/kg at 6, 24 and 48 hours after the insertion of disc. After 4 days from the infection, urine was collected and further the kidney was taken out from the animals, and then the presence of microorganism was checked as to the collected urine and kidney. That is, 0.1 ml of the urine was applied onto an agar plate medium and cultured at 37° C. for 18 hours, and the number of colonies was counted. Besides, the taken out kidney was divided into two, and the plain section was contacted to an agar plate medium, and the medium was cultured likewise, and the number of colonies was counted, likewise. When the number of colonies was less than 10, it was evaluated as "effective," and when the number of colonies was more than 10, it was evaluated as "ineffective". […]

Escherichia coli No. 29 = test: Antimicrobial test in vitro (MIC, agar plate dilution method); assay type: cell-based; set-up: unit not given here; conditions: E. coli No. 29
Protocol: as §1
D: Escherichia coli No. 29

[8] = Measurement of concentration of compounds in blood; assay type: in vivo; conditions: rat, male rats, oral 25 mg/kg
Protocol: as §2

[9] = tested on: Streptococcus pyogenes II D S-23; test: Antimicrobial test in vitro (MIC, agar plate dilution method); assay type: cell-based; set-up: unit not given here; conditions: S. pyogenes II D S-23
Protocol: as §1
B: Streptococcus pyogenes II D S-23

[10] = tested on: Proteus morganii II D Kono; test: as above; assay type: cell-based; set-up: unit not given here; conditions: P. morganii II D Kono
Protocol: as §1
G: Proteus morganii II D Kono

[11] = tested on: Acinetobacter calcoaceticus AC-54; test: as above; assay type: cell-based; set-up: unit not given here; conditions: A. calcoaceticus AC-54
Protocol: as §1
I: Acinetobacter calcoaceticus AC-54

[12] = tested on: Klebsiella pneumoniae NCTC 9632; test: as above; assay type: cell-based; set-up: unit not given here; conditions: K. pneumoniae NCTC 9632
Protocol: as §1
E: Klebsiella pneumoniae NCTC 9632

Proteus mirabilis 1287 = test: as above; assay type: cell-based; set-up: unit not given here; conditions: P. mirabilis 1287
Protocol: as §1
F: Proteus mirabilis 1287

## CC1Cc2c(N3CCN(C)CC3)c(F)c(N)c3c(=O)c(C(=O)O)cn1c23 (stereo not shown) [Compound 1, 8-fluoro-2-methyl-9-(4-methyl-1-piperazinyl)-7-amino-6-oxo-1,2-dihydro-pyrrolo[3,2,1-ij]quinoline-5-carboxylic acid]
[1]; 1×10^6 cells/ml
  minimum inhibitory concentration (MIC): 0.2
[1]; 1×10^8 cells/ml
  minimum inhibitory concentration (MIC): 0.2
[2]; 1×10^6 cells/ml
  minimum inhibitory concentration (MIC): 0.05
[2]; 1×10^8 cells/ml
  minimum inhibitory concentration (MIC): 0.1
[3]
  Recovered amount in urine: 1471.6 µg
[3]; rat, urine, read-out: Recovery rate in urine
  dose excreted at 24 h: 27.2%
[4]; 1×10^6 cells/ml
  minimum inhibitory concentration (MIC): 0.78
[4]; 1×10^8 cells/ml
  minimum inhibitory concentration (MIC): 1.56
[5]; 1×10^6 cells/ml
  minimum inhibitory concentration (MIC): 0.2
[5]; 1×10^8 cells/ml
  minimum inhibitory concentration (MIC): 0.39
[6]; 1×10^6 cells/ml
  minimum inhibitory concentration (MIC): 0.78
[6]; 1×10^8 cells/ml
  minimum inhibitory concentration (MIC): 1.56
[7]
  ED50: 1.53 mg/kg
Escherichia coli No. 29; 1×10^6 cells/ml
  minimum inhibitory concentration (MIC): 0.1
Escherichia coli No. 29; 1×10^8 cells/ml
  minimum inhibitory concentration (MIC): 0.1
[8]; 0.5 hour after the administration
  concentration at 0.5 h: 3190 ng/mL
[8]; 1 hour after the administration
  concentration at 1 h: 2490 ng/mL
[8]; 2 hours after the administration
  concentration at 2 h: 1920 ng/mL
[8]; 4 hours after the administration
  concentration at 4 h: 900 ng/mL
[8]; 6 hours after the administration
  concentration at 6 h: 600 ng/mL
[8]; 8 hours after the administration
  concentration at 8 h: 310 ng/mL
[9]; 1×10^6 cells/ml
  minimum inhibitory concentration (MIC): 3.13
[9]; 1×10^8 cells/ml
  minimum inhibitory concentration (MIC): 3.13
[10]; 1×10^6 cells/ml
  minimum inhibitory concentration (MIC): 0.2
[10]; 1×10^8 cells/ml
  minimum inhibitory concentration (MIC): 0.39
[11]; 1×10^6 cells/ml
  minimum inhibitory concentration (MIC): 0.39
[11]; 1×10^8 cells/ml
  minimum inhibitory concentration (MIC): 0.39
[12]; 1×10^6 cells/ml
  minimum inhibitory concentration (MIC): 0.2
[12]; 1×10^8 cells/ml
  minimum inhibitory concentration (MIC): 0.2
Proteus mirabilis 1287; 1×10^6 cells/ml
  minimum inhibitory concentration (MIC): 0.39
Proteus mirabilis 1287; 1×10^8 cells/ml
  minimum inhibitory concentration (MIC): 0.78
